Data reported in PubChem BioAssay (NCI).
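Protocol summary: plate cells (96-well), add compound at 5 concentrations, incubate 48 h, interpolate endpoints linearly. Here, GI50 denotes the concentration required for 50% inhibition of growth. TGI: total growth inhibition.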

Legend:
Experiment in all cases: NCI anticancer screen, dose series, 48 h
M14 melanoma = tested on: M14 melanoma
UACC-62 melanoma = tested on: UACC-62 melanoma
A498 renal = tested on: A498 renal
OVCAR-8 ovarian = tested on: OVCAR-8 ovarian
KM12 colon = tested on: KM12 colon
SK-MEL-28 melanoma = tested on: SK-MEL-28 melanoma
MALME-3M melanoma = tested on: MALME-3M melanoma
HL-60(TB) leukemia = tested on: HL-60(TB) leukemia
SR leukemia = tested on: SR leukemia

| SMILES | TGI (M14 melanoma) [µM] | TGI (UACC-62 melanoma) [µM] | TGI (A498 renal) [µM] | TGI (OVCAR-8 ovarian) [µM] | TGI (KM12 colon) [µM] | TGI (SK-MEL-28 melanoma) [µM] | TGI (MALME-3M melanoma) [µM] | TGI (HL-60(TB) leukemia) [µM] | TGI (SR leukemia) [µM] | GI50 (M14 melanoma) [µM] | GI50 (UACC-62 melanoma) [µM] | GI50 (A498 renal) [µM] | GI50 (OVCAR-8 ovarian) [µM] | GI50 (SR leukemia) [µM] | GI50 (HL-60(TB) leukemia) [µM] | GI50 (KM12 colon) [µM] | GI50 (SK-MEL-28 melanoma) [µM] | GI50 (MALME-3M melanoma) [µM] |
| --- | --- | --- | --- | --- | --- | --- | --- | --- | --- | --- | --- | --- | --- | --- | --- | --- | --- | --- |
| O=C1C2c3[nH]c4ccccc4c3C3CCSCC3C2C(=O)N1c1ccccc1 (stereo unspecified) | > 100 | > 100 | > 100 | > 100 | > 100 | > 100 | > 100 | > 100 | – | – | – | – | – | – | – | – | – | – |
| CC1(c2ccccc2)CC12C(=O)NC(=O)NC2=O (stereo unspecified) | > 100 | > 100 | – | > 100 | > 100 | > 100 | > 100 | > 100 | > 100 | – | – | – | – | – | – | – | – | – |
| CCC12CCC(O)C1N(C)CCC2Sc1ccccc1 (stereo unspecified) | > 100 | > 100 | > 100 | > 100 | > 100 | > 100 | > 100 | 56.5 | – | – | – | – | – | – | – | – | – | – |
| CC(=O)CC(=O)CCCC(=O)Nc1ccc(Cl)cc1Cl | > 100 | > 100 | – | > 100 | > 100 | > 100 | > 100 | > 100 | > 100 | – | – | – | – | – | – | – | – | – |
| O=C(Nc1cccc(C2=NCCN2)c1)c1ccc(OCCCOc2ccc(C(=O)Nc3cccc(C4=NCCN4)c3)cc2)cc1 | > 100 | 45.7 | 8.37 | > 100 | – | – | – | > 100 | > 100 | 2.88 | 1.41 | 2.3 | 4.03 | 1.96 | 2.3 | – | – | – |
| COc1cccc(/C=C\c2cc(OC)c(OC)c(OC)c2)c1 | > 100 | > 100 | – | > 100 | > 100 | 7.15 | 42.8 | – | 27.5 | – | – | – | – | – | – | – | – | – |
| Cc1ccc(C)c(NC(=O)CC2C(=O)Nc3ccccc3S2(=O)=O)c1 (stereo unspecified) | > 100 | > 100 | > 100 | > 100 | – | > 100 | 96.2 | > 100 | > 100 | – | – | – | – | – | – | – | – | – |
| COC(=O)C/C(C)=C/[C@@H](O)[C@H]1O[C@@H]2CC/C(Cl)=C/C/C=C(/C)[C@H](OC(C)=O)CC(=O)O[C@@H]1C2 | – | 1.67 | – | > 25 | 9.63 | 5.75 | – | 11.9 | 3.19 | – | 0.694 | – | 4.73 | 0.813 | 1.8 | 2.64 | 1.04 | – |
| Cc1ccc(C)c(-n2c(-c3ccc(Br)cc3)csc2=NC(=O)c2ccccc2F)c1 | > 100 | > 100 | > 100 | > 100 | – | > 100 | > 100 | > 100 | – | > 100 | > 100 | > 100 | > 100 | – | 2.82 | – | > 100 | > 100 |
| NC(=O)c1csc(C2O[C@@H](COP(=O)(O)OP(=O)(O)OC[C@H]3OC(n4cnc5c(N)ncnc54)[C@H](O)[C@@H]3O)[C@H](O)[C@@H]2O)n1 (stereo partly specified) | > 100 | > 100 | > 100 | > 100 | > 100 | > 100 | > 100 | > 100 | – | – | – | – | – | – | – | – | – | – |
| COc1ccc(/C=C\c2cc(OC)c(OC)c(OC)c2)cc1NC(=O)[C@@H](N)CO | > 100 | > 100 | < 0.0158 | > 100 | > 100 | – | – | 0.758 | > 100 | 0.0123 | – | < 0.01 | 0.0328 | < 0.015 | < 0.0178 | < 0.0129 | – | – |
| COC1CCC2C(=O)CCCC2O1 (stereo unspecified) | > 100 | > 100 | > 100 | > 100 | > 100 | – | > 100 | > 100 | > 100 | – | – | – | – | – | – | – | – | – |
| Cc1cc(N(CCC#N)CCC#N)ccc1N=Nc1ccccc1[N+](=O)[O-] | > 100 | > 100 | > 100 | > 100 | > 100 | > 100 | > 100 | > 100 | – | – | – | – | – | – | – | – | – | – |
| COC(=O)C(=O)C(C(=O)C(=O)Nc1ccc([N+](=O)[O-])cc1[N+](=O)[O-])c1nc2ccc([N+](=O)[O-])cc2[nH]c1=O (stereo unspecified) | > 100 | > 100 | > 100 | > 100 | > 100 | – | > 100 | > 100 | > 100 | – | – | – | – | – | – | – | – | – |
| COCC1N=C(c2ccc(OC)c(OCc3ccccc3)c2OC)O[C@H]1c1ccccc1 (stereo partly specified) | 35.2 | 51.5 | 79.7 | > 100 | 96.2 | 69.8 | – | 40.4 | – | – | – | – | – | – | – | – | – | – |
| O=C(c1ccccc1)c1ccc2cccc(O)c2n1 | 28 | > 100 | – | 71.9 | > 100 | > 100 | > 100 | – | > 100 | – | – | – | – | – | – | – | – | – |
| CC(C)(C)C(=O)Nc1ccccc1Br | > 100 | > 100 | – | > 100 | > 100 | > 100 | > 100 | > 100 | – | – | – | – | – | – | – | – | – | – |
| O=NN(CCCl)C(=O)NCc1ccc[n+]([O-])c1 | > 100 | > 100 | – | > 100 | > 100 | > 100 | > 100 | > 100 | > 100 | – | – | – | – | – | – | – | – | – |
| O=[N+]([O-])c1ccc(OCCNc2cccc3ccccc23)cc1 | > 100 | > 100 | > 100 | > 100 | > 100 | > 100 | > 100 | – | – | – | – | – | – | – | – | – | – | – |
